This experiment deals with T1, TRPC7 protein (Homo sapiens, UniProt Q9HCX4).
T1 sequence (Q9HCX4 1-862): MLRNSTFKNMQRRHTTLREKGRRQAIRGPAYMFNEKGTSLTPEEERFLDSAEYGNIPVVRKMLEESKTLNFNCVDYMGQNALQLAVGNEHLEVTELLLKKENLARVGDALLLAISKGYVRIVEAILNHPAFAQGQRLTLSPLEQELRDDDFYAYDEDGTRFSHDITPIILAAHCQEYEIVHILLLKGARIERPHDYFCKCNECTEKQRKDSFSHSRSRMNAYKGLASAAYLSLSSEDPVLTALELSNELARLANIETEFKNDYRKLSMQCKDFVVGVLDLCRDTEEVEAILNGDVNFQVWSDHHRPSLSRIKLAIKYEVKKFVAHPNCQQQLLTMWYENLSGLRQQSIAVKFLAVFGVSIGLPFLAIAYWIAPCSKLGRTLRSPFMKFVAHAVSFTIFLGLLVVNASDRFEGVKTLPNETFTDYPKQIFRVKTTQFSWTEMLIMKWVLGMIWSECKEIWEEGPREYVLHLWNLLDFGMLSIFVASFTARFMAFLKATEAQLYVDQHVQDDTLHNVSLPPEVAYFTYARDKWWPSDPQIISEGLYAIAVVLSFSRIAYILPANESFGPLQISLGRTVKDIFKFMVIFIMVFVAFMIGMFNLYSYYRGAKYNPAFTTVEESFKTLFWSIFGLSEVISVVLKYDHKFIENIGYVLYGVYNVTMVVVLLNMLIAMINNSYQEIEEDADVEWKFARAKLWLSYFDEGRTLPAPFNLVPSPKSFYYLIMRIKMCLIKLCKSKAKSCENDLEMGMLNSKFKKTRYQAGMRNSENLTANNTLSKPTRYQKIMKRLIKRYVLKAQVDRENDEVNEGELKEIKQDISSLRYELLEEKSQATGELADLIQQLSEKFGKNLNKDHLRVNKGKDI
The experiment is described as follows: MST binding to TRPC7 protein. Conditions: for Kd: MST; for affinity strength to TRPC6 protein higher than to TRPC7 protein: MST Kd ratio. As for the experimental part:
Preparation and labelling of protein solution: TRPC6 protein dry powder (Alomone Labs, Israel) was prepared into a protein mother solution at a concentration of 10 μM using PBS-Buffer, and 35 μL of the protein stock solution was taken to the Buffer exchange A column, and centrifuged to obtain the Tris-removed protein. 34 μL Labelling Buffer was added to the Tris-removed protein according to the instructions of the Protein Fluorescent Labelling Kit (model L001). After mixing well, 3 μL of NT-647-NHS fluorescent dye was added and thus obtained mixture was incubated for 20 minutes. The protein-dye mixture was transferred to the purification B column, 300 μL of PBS-Buffer was added, and the target protein, i.e. fluorescent labelled protein TRPC6, was collected by centrifugation (with a final concentration of about 2 μM). 180 μL of target protein was mixed with 1620 μL of PBS-Buffer, and then 9 μl of Tween-20 were added thereto. Thus the resulting mixture was mixed and then centrifuged to obtain the target protein solution.
Preparation of compound solutions: the compounds were prepared separately with DMSO to storage solutions with a concentration of […]. 10 μL of each storage solution was placed in a […] EP tube, 90 μL of PBS was added thereto and the resulting mixture was thoroughly mixed to prepare 100 μL of working solution at a concentration of 1 μM for later use. Ligand gradient dilutions were made for a total of 16 concentrations, and 10 μL of 10% DMSO-Buffer was added to each of the 15 gradients except gradient 1, followed by the addition of 10 μL of ligand working solution to gradients 1 and 2, respectively. The liquid in tube 2 was mixed and then 10 μL therein was taken into tube 3, and dilution was carried out in this manner until tube 16. Tube 16 was mixed and 10 μL therein was taken and discarded, and the remainder was kept for later use.
Detection and analysis: 10 μL of protein solution was added to the 16 compound gradient dilutions respectively and mixed, and the resultant mixtures were transferred to capillary tubes sequentially to start detection on machine. After loading the data, the MST analysis model and Kd Model were selected to obtain the fitting curve and dissociation constant (Kd).
The binding ability of the compounds of the present invention (as exemplified by the compounds 1-1 and 2-1 obtained in Examples 1 and 3) for other TRPC proteins (e.g., TRPC1, TRPC3, TRPC4, TRPC5, and TRPC7) was determined using the microscale thermophoresis (MST) method. The method was as follows:
The affinity of the compounds of the present invention with TRPC1, TRPC3, TRPC4, TRPC5 and TRPC7 proteins, respectively, was determined by the same method as in Example 5.

One may read the Kd as the concentration at which binding is half-saturated. Take `Cn1c(C(=O)NCCC(=O)O)cc2ccccc21` [3-[(1-methyl-1H-indole-2-carbonyl)amino]propionic acid, reference compound]: the dissociation constant (Kd) stood at 1.04 µM and the “affinity strength to TRPC6 protein higher than to TRPC7 protein” value amounted to 35 fold.
Take `CC(=O)OCCCNC(=O)c1c(C=O)c2ccccc2n1C` [compound 1-1, propyl 3-[(3-formyl-1-methyl-1H-indole-2-carbonyl)amino]acetate]: binding was put at a Kd of 3.04 µM and the “affinity strength to TRPC6 protein higher than to TRPC7 protein” value is listed as 254 fold.
The corresponding values for `Cn1c(C(=O)NCCCOC(=O)c2ccccc2)c(C=O)c2ccccc21` [compound 2-1] are 3.21 µM and 160 fold.

For the origin of these results see US12692232B2, “Indole carboxamide compound, preparation therefor and use thereof” (NANJING RUISHUNING MEDICAL TECHNOLOGY CO., LTD., priority 2021, dated 2026).
